According to ChEMBL document CHEMBL1130505, “2-Aryloxycarbonylthiophene-3-sulfonamides: Highly potent and etA selective endothelin receptor antagonists” (Bioorg Med Chem Lett, 1997):

Assays:
[1] = molecular target: T1, Endothelin receptor type B (Homo sapiens, UniProt P24530); assay: In vitro binding affinity in a radioligand binding experiment by competition with [125I]-labeled endothelin-1 for ETB receptor
T1 sequence (P24530 whole entry): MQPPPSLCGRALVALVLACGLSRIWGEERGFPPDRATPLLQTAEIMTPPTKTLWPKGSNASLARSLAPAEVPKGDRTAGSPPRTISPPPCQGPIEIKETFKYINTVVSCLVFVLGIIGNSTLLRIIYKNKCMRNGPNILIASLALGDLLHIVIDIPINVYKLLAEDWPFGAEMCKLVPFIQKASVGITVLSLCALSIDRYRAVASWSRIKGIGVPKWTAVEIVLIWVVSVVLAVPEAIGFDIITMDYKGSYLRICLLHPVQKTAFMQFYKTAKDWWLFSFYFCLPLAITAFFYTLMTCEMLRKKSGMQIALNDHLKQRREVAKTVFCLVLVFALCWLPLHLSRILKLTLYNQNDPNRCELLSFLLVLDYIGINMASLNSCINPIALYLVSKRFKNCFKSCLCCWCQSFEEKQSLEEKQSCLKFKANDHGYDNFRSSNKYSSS

[2] = molecular target: T2, Endothelin receptor type B (Homo sapiens) (UniProt P24530); assay: Percent inhibition against ETB receptor binding at a concentration of 100 uM
T2 sequence (whole entry): T1 sequence (P24530 whole entry)

[3] = molecular target: T3, Endothelin-1 receptor (Homo sapiens, UniProt P25101); assay: In vitro binding affinity in a radioligand binding experiment by competition with [125I]-labeled endothelin-1 for ETA receptor
T3 sequence (P25101 whole entry): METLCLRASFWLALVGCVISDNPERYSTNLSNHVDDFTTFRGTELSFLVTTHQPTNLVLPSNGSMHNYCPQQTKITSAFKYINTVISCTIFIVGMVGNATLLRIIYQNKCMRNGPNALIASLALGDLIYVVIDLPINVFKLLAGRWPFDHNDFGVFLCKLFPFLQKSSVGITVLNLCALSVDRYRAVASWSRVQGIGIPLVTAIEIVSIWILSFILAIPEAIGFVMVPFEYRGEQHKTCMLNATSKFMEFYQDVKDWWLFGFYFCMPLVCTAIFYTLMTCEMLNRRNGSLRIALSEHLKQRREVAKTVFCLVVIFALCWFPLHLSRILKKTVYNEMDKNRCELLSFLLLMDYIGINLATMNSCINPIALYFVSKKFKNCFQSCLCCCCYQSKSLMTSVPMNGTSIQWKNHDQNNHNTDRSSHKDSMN

| IC50 [1] [µM] | inhibition [2] [%] | IC50 [3] [µM] | Compound |
| --- | --- | --- | --- |
| 9.21 | – | 0.0093 | Cc1ccc(OC(=O)c2sccc2S(=O)(=O)Nc2onc(C)c2Br)cc1 |
| 5.74 | – | 0.0089 | Cc1noc(NS(=O)(=O)c2ccsc2C(=O)Oc2ccc3c(c2)OCO3)c1Br |
| > 100 | < 50 | 0.74 | COC(=O)c1sccc1S(=O)(=O)Nc1onc(C)c1Br |
| > 100 | < 50 | – | Cc1ccc(OC(=O)c2sccc2S(=O)(=O)Nc2onc(C)c2Cl)cc1 |
| 7.94 | – | 0.0083 | Cc1noc(NS(=O)(=O)c2ccsc2C(=O)Oc2ccc3c(c2)OCO3)c1Cl |
| > 100 | < 50 | – | Cc1noc(NS(=O)(=O)c2ccsc2C(=O)Oc2ccccc2)c1Cl |
| > 100 | < 50 | – | Cc1cccc(OC(=O)c2sccc2S(=O)(=O)Nc2onc(C)c2Br)c1 |
| 48.7 | – | 6.14 | Cc1noc(NS(=O)(=O)c2ccsc2C(=O)Oc2ccc3c(c2)OCO3)c1C |
| > 100 | < 50 | 2.52 | Cc1ccc(OC(=O)c2sccc2S(=O)(=O)Nc2onc(C)c2C)cc1 |
| > 100 | < 50 | – | Cc1noc(NS(=O)(=O)c2ccsc2C(=O)Oc2ccccc2)c1Br |
| > 100 | < 50 | – | Cc1ccccc1OC(=O)c1sccc1S(=O)(=O)Nc1onc(C)c1Br |

The next lines start with the compound.

| Compound | IC50 [1] [µM] | inhibition [2] [%] | IC50 [3] [µM] |
| --- | --- | --- | --- |
| Cc1noc(NS(=O)(=O)c2ccsc2C(=O)Nc2ccccc2)c1C | > 100 | < 50 | 0.55 |
| Cc1noc(NS(=O)(=O)c2ccsc2C(=O)Nc2ccccc2)c1Cl | > 100 | < 50 | 0.148 |
| COC(=O)c1sccc1S(=O)(=O)Nc1onc(C)c1C | > 100 | < 50 | 3.47 |
| Cc1noc(NS(=O)(=O)c2ccsc2C(=O)Oc2ccccc2)c1C | > 100 | < 50 | 4.12 |
| Cc1noc(NS(=O)(=O)c2ccsc2C(=O)O)c1Cl | > 100 | < 50 | 1.06 |
| Cc1noc(NS(=O)(=O)c2ccsc2C(=O)O)c1Br | > 100 | < 50 | 10.2 |
| COC(=O)c1sccc1S(=O)(=O)Nc1onc(C)c1Cl | > 100 | < 50 | 1.09 |
| Cc1ccc(OC(=O)c2sccc2S(=O)(=O)Nc2onc(C)c2C)c(C)c1 | > 100 | < 50 | 0.27 |
| Cc1noc(NS(=O)(=O)c2ccsc2C(=O)O)c1C | > 100 | < 50 | 6.06 |
